These results are taken from patent US20260327246A1, “FUSED RING KRAS INHIBITORS FOR TREATING DISEASE” (BLOSSOMHILL THERAPEUTICS, INC., priority 2023, published 2026).

The test system of one test is GP2D (KRAS G12D). The test is described as follows: Cell Proliferation Assay (CellTiter-Glo 2.0), GP2D. The class given is cell-based. The note with it: GP2D (KRAS G12D) cells; 72 hours at 37° C., 5% CO2; read-out: Anti-proliferation IC50, GP2D (KRAS G12D). On the procedure: (§1) Two thousand KRAS mutant cells per well are seeded in 384-well white plate and then treated with indicated compounds for 72 hours at 37° C. and 5% CO2. Cell proliferation is measured using CellTiter-Glo 2.0 luciferase-based ATP detection assay (Promega, Madison, WI) following the manufacturer's protocol. IC50 values are determined using Prism software (GraphPad Software, San Diego, CA).
(ATP-based viability assays read luminescence as a measure of living cells.)

Another test has as its system SW620 (KRAS G12V). The test is described as follows: Cell Proliferation Assay (CellTiter-Glo 2.0), SW620. The class given is cell-based. The note with it: Homo sapiens, SW-620; SW620 (KRAS G12V) cells; 72 hours at 37° C., 5% CO2; read-out: Anti-proliferation IC50, SW620 (KRAS G12V). On the procedure:
as §1

Each structure is given as a SMILES string.

Turning to `C#Cc1c(F)ccc2cc(O)cc(-c3nc4c5c(nc(OC[C@@]67CCCN6C[C@H](F)C7)nc5c3F)N3CCCOC[C@H]3CC4)c12` [compound 1, 5-ethynyl-6-fluoro-4-[(8aR)-4-fluoro-2-{[(2R,7aS)-2-fluorotetrahydro-1H-pyrrolizin-7a(5H)-yl]methoxy}-7,8,8a,9,12,13-hexahydro-11H-10-oxa-1,3,6,13a-tetraazanaphtho[1,8-ab]heptalen-5-yl]naphthalen-2-ol], the IC50 with GP2D (KRAS G12D) stood at 1.1 nM; with SW620 (KRAS G12V) it was 3.6 nM.

As for `C#Cc1c(F)ccc2cc(O)cc(-c3nc4c5c(nc(OC[C@@]67CCCN6C[C@H](F)C7)nc5c3F)N3CCCOC[C@@H]3CC4)c12` [compound 2, 5-ethynyl-6-fluoro-4-[(8aS)-4-fluoro-2-{[(2R,7aS)-2-fluorotetrahydro-1H-pyrrolizin-7a(5H)-yl]methoxy}-7,8,8a,9,12,13-hexahydro-11H-10-oxa-1,3,6,13a-tetraazanaphtho[1,8-ab]heptalen-5-yl]naphthalen-2-ol], the IC50 was found to be 85 nM in the test on GP2D (KRAS G12D) and 592 nM in the test on SW620 (KRAS G12V).

As to `CCc1c(F)ccc2cc(O)cc(-c3nc4c5c(nc(OC[C@@]67CCCN6C[C@H](F)C7)nc5c3F)N3CCCOC[C@H]3CC4)c12` [compound 3, 5-ethyl-6-fluoro-4-[(8aR)-4-fluoro-2-{[(2R,7aS)-2-fluorotetrahydro-1H-pyrrolizin-7a(5H)-yl]methoxy}-7,8,8a,9,12,13-hexahydro-11H-10-oxa-1,3,6,13a-tetraazanaphtho[1,8-ab]heptalen-5-yl]naphthalen-2-ol], the results for the IC50 with GP2D (KRAS G12D) and in the test on SW620 (KRAS G12V) were 6.3 nM and 11 nM, respectively.

For `CCc1c(F)ccc2cc(O)cc(-c3nc4c5c(nc(OC[C@@]67CCCN6C[C@H](F)C7)nc5c3F)N3CCCOC[C@@H]3CC4)c12` [compound 4, 5-ethyl-6-fluoro-4-[(8aS)-4-fluoro-2-{[(2R,7aS)-2-fluorotetrahydro-1H-pyrrolizin-7a(5H)-yl]methoxy}-7,8,8a,9,12,13-hexahydro-11H-10-oxa-1,3,6,13a-tetraazanaphtho[1,8-ab]heptalen-5-yl]naphthalen-2-ol], the results for the IC50 in the test with GP2D (KRAS G12D) and in the test on SW620 (KRAS G12V) were 135 nM and 304 nM, respectively.

In the case of `C#Cc1c(F)ccc2cc(O)cc(-c3nc4c5c(nc(OC[C@@]67CCCN6C[C@H](F)C7)nc5c3F)N3CCOCC[C@H]3CC4)c12` [compound 5, 5-ethynyl-6-fluoro-4-[(8aR)-4-fluoro-2-{[(2R,7aS)-2-fluorotetrahydro-1H-pyrrolizin-7a(5H)-yl]methoxy}-8,8a,9,10,12,13-hexahydro-7H-11-oxa-1,3,6,13a-tetraazanaphtho[1,8-ab]heptalen-5-yl]naphthalen-2-ol], the figures for the IC50 in the test on GP2D (KRAS G12D) and in the test on SW620 (KRAS G12V) were 4.2 nM and 20 nM, respectively.

Take `CCc1c(F)ccc2cc(O)cc(-c3nc4c5c(nc(OC[C@@]67CCCN6C[C@H](F)C7)nc5c3F)N3CCOCC[C@H]3CC4)c12` [compound 6, 5-ethyl-6-fluoro-4-[(8aR)-4-fluoro-2-{[(2R,7aS)-2-fluorotetrahydro-1H-pyrrolizin-7a(5H)-yl]methoxy}-8,8a,9,10,12,13-hexahydro-7H-11-oxa-1,3,6,13a-tetraazanaphtho[1,8-ab]heptalen-5-yl]naphthalen-2-ol]: the IC50 in the test with GP2D (KRAS G12D) stood at 21 nM; with SW620 (KRAS G12V), 26 nM.

Take `C#Cc1c(F)ccc2cc(O)cc(-c3nc4c5c(nc(OC[C@@]67CCCN6C[C@H](F)C7)nc5c3F)N3CCCC[C@H]3COC4)c12` [compound 9, 5-ethynyl-6-fluoro-4-[(6aS)-1-fluoro-12-{[(2R,7aS)-2-fluorotetrahydro-1H-pyrrolizin-7a(5H)-yl]methoxy}-6,6a,7,8,9,10-hexahydro-4H-5-oxa-3,10a,11,13-tetraazabenzo[4,5]cycloocta[1,2,3-de]naphthalen-2-yl]naphthalen-2-ol]: the IC50 came out at 102 nM in the test on GP2D (KRAS G12D) and 641 nM in the test on SW620 (KRAS G12V).

As to `C#Cc1c(F)ccc2cc(O)cc(-c3nc4c5c(nc(OC[C@@]67CCCN6C[C@H](F)C7)nc5c3F)N3CCC[C@H]3COC4)c12` [compound 10, 5-ethynyl-6-fluoro-4-[(6aS)-1-fluoro-11-{[(2R,7aS)-2-fluorotetrahydro-1H-pyrrolizin-7a(5H)-yl]methoxy}-6a,7,8,9-tetrahydro-4H,6H-5-oxa-3,9a,10,12-tetraazacyclopenta[4,5]cycloocta[1,2,3-de]naphthalen-2-yl]naphthalen-2-ol], the IC50 with GP2D (KRAS G12D) and in the test with SW620 (KRAS G12V) was 3000 nM each time.

Regarding `C#Cc1c(F)ccc2cc(O)cc(-c3nc4c5c(nc(OC[C@@]67CCCN6C[C@H](F)C7)nc5c3F)N3CCCC[C@H]3C4)c12` [compound 13, 5-ethynyl-6-fluoro-4-((S)-4-fluoro-2-(((2R,7aS)-2-fluorotetrahydro-1H-pyrrolizin-7a(5H)-yl)methoxy)-7,7a,8,9,10,11-hexahydropyrido[1,2-g]pyrimido[4,5,6-de][1,6]naphthyridin-5-yl)naphthalen-2-ol], the IC50 in the test with GP2D (KRAS G12D) was 3.9 nM; with SW620 (KRAS G12V), 39 nM.

Consider `C#Cc1c(F)ccc2cc(O)cc(-c3nc4c5c(nc(OC[C@@]67CCCN6C[C@H](F)C7)nc5c3F)N3CCOC[C@H]3C4)c12` [compound 18, 5-ethynyl-6-fluoro-4-((R)-4-fluoro-2-(((2R,7aS)-2-fluorotetrahydro-1H-pyrrolizin-7a(5H)-yl)methoxy)-7a,8,10,11-tetrahydro-7H-[1,4]oxazino[4,3-g]pyrimido[4,5,6-de][1,6]naphthyridin-5-yl)naphthalen-2-ol], for which the IC50 in the test on GP2D (KRAS G12D) turned out to be 123 nM; in the test on SW620 (KRAS G12V), 130 nM.

Turning to `C#Cc1c(F)ccc2cc(O)cc(-c3nc4c5c(nc(OC[C@@]67CCCN6C[C@H](F)C7)nc5c3F)N3CCCC[C@H]3CC4)c12` [compound 20, 5-ethynyl-6-fluoro-4-[(8aS)-4-fluoro-2-{[(2R,7aS)-2-fluorotetrahydro-1H-pyrrolizin-7a(5H)-yl]methoxy}-8,8a,9,10,11,12-hexahydro-7H-1,3,6,12a-tetraazabenzo[4,5]cyclohepta[1,2,3-de]naphthalen-5-yl]naphthalen-2-ol], the IC50 was determined as 10 nM in the test on GP2D (KRAS G12D) and 47 nM in the test with SW620 (KRAS G12V).

As to `C#Cc1c(F)ccc2cc(O)cc(-c3nc4c5c(nc(OC[C@@]67CCCN6C[C@H](F)C7)nc5c3F)N3CCCCC3C=C4)c12` (stereo partly drawn) [compound 21, 5-ethynyl-6-fluoro-4-(4-fluoro-2-{[(2R,7aS)-2-fluorotetrahydro-1H-pyrrolizin-7a(5H)-yl]methoxy}-9,10,11,12-tetrahydro-8aH-1,3,6,12a-tetraazabenzo[4,5]cyclohepta[1,2,3-de]naphthalen-5-yl)naphthalen-2-ol], the IC50 worked out at 2.9 nM in the test with GP2D (KRAS G12D) and 20 nM in the test with SW620 (KRAS G12V).

Turning to `C#Cc1c(F)ccc2cc(O)cc(-c3nc4c5c(nc(OC[C@@]67CCCN6C[C@H](F)C7)nc5c3F)N3CCCCCC3CC4)c12` (stereo partly drawn) [compound 22], the IC50 in the test with GP2D (KRAS G12D) amounted to 32 nM; in the test on SW620 (KRAS G12V), 248 nM.

For the compound `CCc1c(F)ccc2cc(O)cc(-c3nc4c5c(nc(OC[C@@]67CCCN6C[C@H](F)C7)nc5c3F)N3CCCCCC3CC4)c12` (stereo partly drawn) [compound 23, 5-ethyl-6-fluoro-4-(4-fluoro-2-{[(2R,7aS)-2-fluorotetrahydro-1H-pyrrolizin-7a(5H)-yl]methoxy}-7,8,8a,9,10,11,12,13-octahydro-1,3,6,13a-tetraazanaphtho[1,8-ab]heptalen-5-yl)naphthalen-2-ol], the IC50 in the test on GP2D (KRAS G12D) is 172 nM; in the test on SW620 (KRAS G12V) it was 1450 nM.

For `C#Cc1c(F)ccc2cc(O)cc(-c3nc4c5c(nc(OCC6(CN(C)C)CC6(F)F)nc5c3F)N3CCCCC3CC4)c12` (stereo not drawn) [compound 24, 4-[2-({1-[(dimethylamino)methyl]-2,2-difluorocyclopropyl}methoxy)-4-fluoro-8,8a,9,10,11,12-hexahydro-7H-1,3,6,12a-tetraazabenzo[4,5]cyclohepta[1,2,3-de]naphthalen-5-yl]-5-ethynyl-6-fluoronaphthalen-2-ol], the IC50 came to 23 nM in the test on GP2D (KRAS G12D) and 91 nM in the test with SW620 (KRAS G12V).

As for `C#Cc1c(F)ccc2cc(O)cc(-c3nc4c5c(nc(OC[C@@]67CCCN6C[C@H](F)C7)nc5c3F)N3CCOCC[C@@H]3CC4)c12` [compound 25, 5-ethynyl-6-fluoro-4-[(8aS)-4-fluoro-2-{[(2R,7aS)-2-fluorotetrahydro-1H-pyrrolizin-7a(5H)-yl]methoxy}-8,8a,9,10,12,13-hexahydro-7H-11-oxa-1,3,6,13a-tetraazanaphtho[1,8-ab]heptalen-5-yl]naphthalen-2-ol], the IC50 is 276 nM in the test with GP2D (KRAS G12D) and 638 nM in the test with SW620 (KRAS G12V).

On to `CCc1c(F)ccc2cc(O)cc(-c3nc4c5c(nc(OC[C@@]67CCCN6C[C@H](F)C7)nc5c3F)N3CCOCC[C@@H]3CC4)c12` [compound 26, 5-ethyl-6-fluoro-4-[(8aS)-4-fluoro-2-{[(2R,7aS)-2-fluorotetrahydro-1H-pyrrolizin-7a(5H)-yl]methoxy}-8,8a,9,10,12,13-hexahydro-7H-11-oxa-1,3,6,13a-tetraazanaphtho[1,8-ab]heptalen-5-yl]naphthalen-2-ol], for which the IC50 in the test on GP2D (KRAS G12D) worked out at 321 nM; with SW620 (KRAS G12V) it was 557 nM.

Take `C#Cc1c(F)ccc2cc(O)cc(-c3nc4c5c(nc(OC[C@@]67CCCN6C[C@H](F)C7)nc5c3F)N3CCCC[C@@H]3CC4)c12` [compound 27, 5-ethynyl-6-fluoro-4-[(8aR)-4-fluoro-2-{[(2R,7aS)-2-fluorotetrahydro-1H-pyrrolizin-7a(5H)-yl]methoxy}-8,8a,9,10,11,12-hexahydro-7H-1,3,6,12a-tetraazabenzo[4,5]cyclohepta[1,2,3-de]naphthalen-5-yl]naphthalen-2-ol]: the values for the IC50 in the test on GP2D (KRAS G12D) and in the test with SW620 (KRAS G12V) were 10 nM and 32 nM, respectively.
